Data published in patent US10278942B2 (PELOTON THERAPEUTICS, INC., priority 2015, dated 2019).
pIC50: −log10 of the molar value.

Columns and labels:
[1] = molecular target: T1, HIF-2α HIS TAG-PASB Domain (Homo sapiens, UniProt Q99814); test: HIF-2α Scintillation Proximity Assay (SPA); format: binding; conditions: read-out: Scintillation Proximity Assay IC50
T1 construct: 100 nM HIF-2α HIS TAG-PASB Domain
How it was run: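 IC50 values rest on percent inhibition, where the sample signal is scaled between high and low controls. Wells contain about 100 μL: compound dispensed as 2 μL of DMSO solution, 88 μL protein-probe mix and 10 μL of beads.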

786-O-Hif-Luc cells = test: Luciferase Assay (HIF responsive elements reporter); conditions: read-out: Mean Luciferase EC50 (nM), 786-O-Hif-Luc cells
Experimental: A pool of infected cells were then selected against 2 μg/mL of puromycin (P8833, Sigma) for 10 days followed by limited dilution to select single clones. […] Each concentration was tested in triplicate. After about 24 hours, luciferase activity was determined using ONE-Glo Luciferase Assay Reagent (E6110, Promega) following the manufacturer's recommended procedure. EC50 were calculated using Dotmatics software.

T1 sequence (Q99814 240-350 limits assumed): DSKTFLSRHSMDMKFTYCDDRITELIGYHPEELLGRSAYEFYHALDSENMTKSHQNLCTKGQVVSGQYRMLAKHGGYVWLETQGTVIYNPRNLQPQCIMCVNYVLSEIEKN

Compound | pIC50 [1] | EC50 (786-O-Hif-Luc cells)
CS(=N)(=O)c1ccc(Oc2cc(F)cc(F)c2)c2c1C(O)C(F)(F)C2 (centres unmarked) [Compound 192] | 6.60 to 7.30 | 250 to 1000 nM
N#Cc1cc(F)cc(Oc2ccc(S(=O)(=O)C(F)F)c3c2CC(F)(F)[C@H]3N)c1 [Compound 207] | 6.00 to 6.60 | 250 to 1000 nM
O=S(=O)(c1ccc(OC2CCOC2)c2c1C(O)C(F)(F)C2)C(F)(F)F (centres unmarked) [Compound 604] | 6.60 to 7.30 | 50 to 249 nM
N#CCC1(COc2ccc(S(=O)(=O)C(F)(F)F)c3c2CC(F)(F)[C@H]3O)COC1 [Compound 707] | 6.00 to 6.60 | 250 to 1000 nM
O=S(=O)(c1ccc(OC2CCNCC2)c2c1C(O)C(F)(F)C2)C(F)(F)F (centres unmarked) [Compound 607] | > 7.30 | > 1000 nM
CS(=O)(=O)c1ccc(OCC2(C#N)CC2)c2c1[C@H](O)C(F)(F)[C@@H]2F [Compound 754] | 6.00 to 6.60 | > 1000 nM
C[C@]1(C#N)C[C@H](Oc2ccc(S(=O)(=O)C(F)(F)F)c3c2C[C@H](F)[C@H]3O)C1 [Compound 795] | 6.60 to 7.30 | 50 to 249 nM
O=S(=O)(c1ccc(Oc2ccc(F)c(F)c2)c2c1C(O)CC2)C(F)(F)F (centres unmarked) [Compound 214] | 6.60 to 7.30 | > 1000 nM
O=S(=O)(c1ccc(OC2CC3(COC3)C2)c2c1[C@H](O)C(F)(F)C2)C(F)(F)F [Compound 718] | 6.60 to 7.30 | 250 to 1000 nM
COc1cc(F)cc(Oc2ccc3c(c2C#N)[C@@H](O)C(F)(F)S3(=O)=O)c1 [Compound 427] | 6.60 to 7.30 | > 1000 nM
O=S(=O)(c1ccc(OCCCO)c2c1C(O)C(F)(F)C2)C(F)(F)F (centres unmarked) [Compound 612] | 6.00 to 6.60 | > 1000 nM
O=S(=O)(c1ccc(O[C@@H]2CCCOC2)c2c1[C@H](O)C(F)(F)C2)C(F)(F)F [Compound 730] | 6.60 to 7.30 | 50 to 249 nM
CCCOc1ccc(I)c2c1C[C@@H](F)[C@H]2O [Compound 683] | < 6.00 | > 1000 nM
N#Cc1c(Oc2cc(F)cc(F)c2)ccc2c1C(O)C(F)(F)S2(=O)=O (centres unmarked) [Compound 443] | > 7.30 | 250 to 1000 nM
N[C@@H]1c2c(ccc(Oc3cc(F)cc(F)c3)c2C(F)F)S(=O)(=O)C1(F)F [Compound 401] | > 7.30 | 50 to 249 nM
N=S1(=O)c2ccc(Oc3cc(F)cc(F)c3)c(Br)c2C(O)C1(F)F (centres unmarked) [Compound 377] | < 6.00 | 250 to 1000 nM
NC1c2cc(Oc3cc(F)cc(Cl)c3)ccc2S(=O)(=O)C1(F)F (centres unmarked) [Compound 358] | 6.60 to 7.30 | > 1000 nM
O=S(=O)(CF)c1ccc(Oc2cncc(Cl)c2)c2c1[C@H](O)C(F)(F)C2 [Compound 187] | 6.60 to 7.30 | 50 to 249 nM
O=C1CCc2c(Oc3cc(F)cc(Cl)c3)ccc(S(=O)(=O)C(F)F)c21 [Compound 18] | 6.60 to 7.30 | > 1000 nM
Cc1c(Oc2cc(F)cc(Cl)c2)ccc(S(=O)(=O)C(F)(F)F)c1Cl [Compound 143] | > 7.30 | > 1000 nM
CS(=O)(=O)c1ccc(OC[C@H]2C[C@@H]2C#N)c2c1[C@H](O)C(F)(F)[C@@H]2F [Compound 770] | 6.00 to 6.60 | > 1000 nM
N#Cc1cc(F)cc(Nc2ccc(S(=O)(=O)C(F)(F)F)c3c2CCC3O)c1 (centres unmarked) [Compound 505] | 6.00 to 6.60 | 250 to 1000 nM
O=S(=O)(c1ccc(Oc2ccc(F)c(Cl)c2)c2c1[C@H](O)C(F)(F)C2)C(F)F [Compound 26] | > 7.30 | 50 to 249 nM
NC(=O)C1CCc2c(OCC(F)F)ccc(C(F)(F)F)c21 (centres unmarked) [Compound 692] | < 6.00 | > 1000 nM
O=S1(=O)c2ccc(Oc3cncc(Cl)c3)c(Cl)c2[C@@H](O)C1(F)F [Compound 432] | 6.00 to 6.60 | 250 to 1000 nM

The remaining lines, values ahead:

pIC50 [1] | EC50 (786-O-Hif-Luc cells) | Compound
6.00 to 6.60 | > 1000 nM | O=S(=O)(c1ccc(Oc2c(F)ccc3[nH]ncc23)c2c1[C@H](O)C(F)(F)C2)C(F)(F)F [Compound 264]
> 7.30 | 250 to 1000 nM | O=S(=O)(c1ccc(Oc2cc(F)cc(F)c2)c(Cl)c1CO)C(F)F [Compound 168]
6.60 to 7.30 | 250 to 1000 nM | CC1(O)c2c(ccc(Oc3cc(F)cc(F)c3)c2Br)S(=O)(=O)C1(F)F (centres unmarked) [Compound 444]
6.60 to 7.30 | 50 to 249 nM | CS(=O)(=NC#N)c1ccc(Oc2cc(F)cc(C#N)c2)c2c1[C@H](O)[C@H](F)C2 (some centres unmarked) [Compound 302]
6.60 to 7.30 | 50 to 249 nM | OC1c2c(I)ccc(OCC(F)F)c2CC1(F)F (centres unmarked) [Compound 681]
> 7.30 | > 1000 nM | N#Cc1c(S(=O)(=O)C(F)(F)F)ccc(Oc2cc(F)cc(Cl)c2)c1Cl [Compound 111]
6.60 to 7.30 | 250 to 1000 nM | Cc1c(Oc2cc(F)cc(C#N)c2)ccc(S(=O)(=O)C(F)(F)F)c1CO [Compound 146]
> 7.30 | < 50 nM | O=S(=O)(c1ccc(OCC2CC2(F)F)c2c1[C@H](O)C(F)(F)C2)C(F)(F)F (some centres unmarked) [Compound 728]
6.60 to 7.30 | 250 to 1000 nM | O=S(=O)(CF)c1ccc(Oc2cccc3sccc23)c2c1C(O)C(F)(F)C2 (centres unmarked) [Compound 242]
> 7.30 | < 50 nM | C[C@]1(C#N)C[C@@H](Oc2ccc(S(=O)(=O)C(F)(F)F)c3c2CC(F)(F)[C@H]3O)C1 [Compound 789]
< 6.00 | > 1000 nM | O=S(=O)(c1ccc(Oc2cc(F)cc(F)c2)c2c1CCC2)C(F)F [Compound 20]
< 6.00 | > 1000 nM | O=S(=O)(c1ccc(-c2cccnc2)c2c1[C@H](O)C(F)(F)C2)C(F)(F)F [Compound 558]
< 6.00 | > 1000 nM | O=S(=O)(c1ccc(Cn2cncn2)c2c1[C@H](O)C(F)(F)C2)C(F)(F)F [Compound 534]
6.60 to 7.30 | 250 to 1000 nM | O=S1(=O)CC(O)c2c1ccc(Oc1cc(F)cc(F)c1)c2C(F)F (centres unmarked) [Compound 370]
< 6.00 | > 1000 nM | O=S1(=O)c2ccc(OCC3CC3)c(C(F)F)c2[C@@H](O)C1(F)F [Compound 439]
6.60 to 7.30 | > 1000 nM | CS(=O)(=O)c1ccc(OCC(F)(F)F)c2c1[C@H](O)C(F)(F)[C@@H]2F [Compound 751]
< 6.00 | > 1000 nM | O=S(=O)(c1ccc(-c2ccccc2Cl)c2c1[C@H](O)C(F)(F)C2)C(F)(F)F [Compound 565]
> 7.30 | 250 to 1000 nM | CS(=O)(=O)c1ccc(OCC2CC2(F)F)c2c1[C@H](O)C(F)(F)[C@@H]2F (some centres unmarked) [Compound 756]
6.60 to 7.30 | 50 to 249 nM | CC1(C)CC[C@@H](O)[C@H](c2ccc(S(=O)(=O)C(F)(F)F)c3c2CC(F)(F)[C@H]3O)C1 [Compound 547]
< 6.00 | > 1000 nM | CS(=O)(=O)c1ccc(OC[C@@H]2C[C@@H]2C#N)c2c1[C@H](O)C(F)(F)[C@@H]2F [Compound 764]
6.00 to 6.60 | > 1000 nM | COc1c(Oc2cc(F)cc(C#N)c2)ccc2c1C(O)C(F)(F)S2(=O)=O (centres unmarked) [Compound 433]
> 7.30 | 250 to 1000 nM | COCCCOc1ccc(S(=O)(=O)C(F)(F)F)c2c1CC(F)(F)C2O (centres unmarked) [Compound 608]
> 7.30 | > 1000 nM | CCOc1ccc(S(C)(=O)=O)c2c1CC(F)(F)[C@H]2O [Compound 778]
< 6.00 | > 1000 nM | Cc1cncc(Oc2ccc3c(c2Br)[C@@H](O)C(F)(F)S3(=O)=O)c1 [Compound 428]
